According to patent US6962921B2, “Dementia remedies containing 2-aryl-8-oxodihydropurine derivatives as the active ingredient” (Dainippon Pharmaceutical Co., Ltd., priority 2000, dated 2005):

Legend:
[1] = system: scopolamine-induced spatial memory disorder; experiment: Ameliorating effect on spatial memory disorder induced by scopolamine (Y-maze, alternation behavior); assay type: in vivo; details: Std-ddY male mice, oral, 1 hour before scopolamine 0.6 mg/kg s.c., 5% significance level
Protocol: Experiment 1: Ameliorating Effect on Spatial Memory Disorder Induced by Scopolamine. The spatial memory test using Y-maze apparatus is a test to utilize the behavioral property of animals to enter into a new arm, avoiding the arm that they entered into just before (alternation behavior). This method is often used in order to study spatial working memory. This experiment was carried out according to the method of Itoh, J., et al. [Eur. J. Pharmacol., 236, 341-345 (1993)]. Std-ddY male mice weighing 25-30 g (8 mice per one group) were used in the experiment. A solution of scopolamine in physiological saline (concentration: 0.06 mg/ml) was subcutaneously administered to mice in a volume of 0.1 ml/10 g of body weight, i.e., 0.6 mg/kg. Mice in the test compound group were orally treated with the test compound suspended in 0.5% tragacanth solution in a volume of 0.1 ml/10 g of body weight 1 hour before scopolamine administration, while animals in the amnesia control group and the vehicle control group received a 0.5% tragacanth solution in the same manner as above. However, the vehicle control group was injected with physiological saline instead of scopolamine. Thirty minutes after administration of scopolamine, the mice were placed at the end of the arm A of the Y-maze apparatus which was composed of three black acrylic trapezoid arms (bottom width: 3 cm, height of side wall: 12 cm, width of opened ceiling: 10 cm, length: 40 cm), wherein said three arms were connected at the one end of each arm to form Y-shape and another ends were closed, and the three arms were differentiated by the names as A, B and C respectively, and allowed to search freely the maze for 8 minutes. When the mouse was checked to enter into an arm at the length of not less than 10 cm from the entrance of the arm, the name of the arm (A, B or C) was recorded. It could be defined as a correct choice when the mouse selected the different three arms sequentially, and the number of alternation behavior i.e., the number of correct choices was counted. In the case that the total number of arm entries was less than 10 [the maximum number of alternation behavior (the number obtained by subtracting 2 from the total number of arm entries) is less than 8], the resulting data were not used and the retest was carried out instead, because the ability of learning could not occasionally reflect the alternation behavior. For the final data gotten, the ratio of the number of the alternation behavior to that of the entries (obtained by subtracting 2 from the total number of arm entries) was estimated as the rate of alternation behavior. In statistical analysis, the rate of alternation behavior in the amnesia control group was compared with that in the vehicle control group by the nonparametric Wilcoxon rank sum test and it was checked if a significant amnesia was induced in the amnesia control group. Next, the efficacy of the test compounds was evaluated in comparison between the amnesia control group and the test compound group by the nonparametric Dunnett multiple comparison test. The statistical calculation was carried out with SAS system Version 6.12 (SAS Institute Japan Ltd.).

[2] = system: MK-801-induced object location memory impairment; experiment: Ameliorating effect on the impairment of object location memory induced by MK-801 (object location memory test); assay type: in vivo, mice; details: oral; for effective dose relative to the dose of FGIN-1-27: MK-801-induced object location memory impairment, mice; for MED (minimum effective dose), significant ameliorating effect on MK-801-induced object location memory impairment: Std-ddY male mice, 30 minutes before MK-801 0.05 mg/kg s.c., 5% significance level
Text: Experiment 3: Ameliorating Effect on the Impairment of Object Location Memory Induced by MK-801.
The object location memory test is a test method using the property which animals like to search a novelty caused by the change of an object location. This method is often used in order to study the ability of object location memory. This method is closely related with hypofunction of glutamatergic system and cause the location memory impairment selectively without the impairment of object memory which is induced by hypofunction of cholinergic system.
This experiment was carried out according to the partially modified method of Sophie L. Dix, et al. [Behav. Brain Res., 99, 191-200 (1999)].
Std-ddY male mice weighing 25-30 g (six mice per one group) were used in the experiment. A solution of MK-801 in physiological saline (concentration: 0.005 mg/ml) was subcutaneously administered in a volume of 0.1 ml per 10 g of body weight, i.e., 0.05 mg/kg. For the test compound group, the test compound suspended in 0.5% tragacanth solution was orally administered in a volume of 0.1 ml per 10 g of body weight, 30 minutes before MK-801 administration, and for the amnesia control group and the vehicle control group, a 0.5% tragacanth solution was administered in the same manner as above. However, for the vehicle control group, physiological saline was administered instead of MK-801. Thirty minutes after the administration of MK-801, the first trial was carried out for 5 minutes, and 1 hour after the first trial, the second trial was carried out for 5 minutes. In the first trial, the two same-shaped objects [red frustum-formed funnel adaptors made of silicon (bottom diameter: 6.1 cm, ceiling diameter: 4.5 cm, height: 3.5 cm)] were respectively put in the center and one of the corners of the test box made of brown acrylic (length: 22.5 cm, width 24.5 cm, height: 11 cm), and the time which the mouse explored each object was measured. In the second trial, the object (displaced object: DO) which was located in the center in the first trial was displaced in the opposite corner to another object (non displaced object: NDO), and then the time which the mouse explored each object was measured. The difference in the exploration time of DO and NDO respectively between the first trial and the second trial was calculated, and the comparison between the vehicle control group and the amnesia control group, and between the amnesia control group and the test compound group was carried out.
In statistical analysis, the comparison between the vehicle control group and the amnesia control group was carried out by the Student's t test and it was confirmed whether a significant object location memory impairment was induced. The efficacy of the test compounds was evaluated by comparing the amnesia control group with the test compound group using the parametric Dunnett's multiple comparison test. The statistical calculation was carried out with SAS system Version 6.12 (SAS Institute Japan Ltd.).
Besides, in the vehicle control group, the exploration time for NDO in the second trial decreased and the exploration time for DO was obviously longer than that for NDO. […] On the other hand, in the amnesia control group with MK-801, both exploration time for NDO and DO decreased remarkably.

[3] = system: scopolamine-induced object memory impairment; experiment: Ameliorating effect on object memory disorder induced by scopolamine (object recognition test); assay type: in vivo; details: Std-ddY male mice, oral; for MED (minimum effective dose), significant difference in the discrimination index, scopolamine-induced object memory impairment: 30 minutes before scopolamine 0.4 mg/kg s.c., 5% significance level
Protocol: Experiment 2: Ameliorating Effect on Object Memory Disorder Induced by Scopolamine. The object recognition test is a test method using the property which animals like to search a novel object. This method is often used in order to study the memorization and retention of episodic memory. This experiment was carried out according to the partially modified method of Bartolini, L. et al. [Pharmacol. Biochem. Behav., 53, 277-283 (1996)]. Std-ddY male mice weighing 25-30 g (six mice per one group) were used in the experiment. Scopolamine dissolved in physiological saline (concentration: 0.04 mg/ml) was subcutaneously administered to mice in a volume of 0.1 ml per 10 g of body weight, i.e., 0.4 mg/kg. For the test compound group, the test compound suspended in 0.5% tragacanth solution was orally administered in a volume of 0.1 ml per 10 g of body weight, 30 minutes before scopolamine administration, and for the amnesia control group and the vehicle control group, a 0.5% tragacanth solution was administered in the same manner as above. However, for the vehicle control group, physiological saline was administered instead of scopolamine. Thirty minutes after the administration of scopolamine, the first trial was carried out for 5 minutes, and 1 hour after the first trial, the second trial was carried out for 5 minutes. In the first trial, the two same-shaped objects [red frustum-formed funnel adaptors made of silicon (bottom diameter: 6.1 cm, ceiling diameter: 4.5 cm, height: 3.5 cm)] are put on the two adjacent corners of the test box made of brown acrylic (length: 22.5 cm, width: 24.5 cm, height: 11 cm), and the time that the mouse explored each object was measured. In the second trial, the object (familiar: F) which the exploration time was longer in the first trial was retained, while another object in the first trial was replaced by the novel object [novel: N, red diver ring (outside diameter: 7.5 cm, inside diameter: 2.5 cm, thickness: 2.0 cm)] at the same position, and then the time for exploring each object was measured. The rate of object memory impairment was obtained from the formula: (N−F)/(N+F) as a discrimination index, and the comparison between the vehicle control group and the amnesia control group, and between the amnesia control group and the test compound group was carried out on the basis of said discrimination index. In statistical analysis, the comparison between the vehicle control group and the amnesia control group was carried out by the Student's t test and it was checked whether a significant amnesia was induced. The efficacy of the test compounds was evaluated on the basis of comparison between the amnesia control group and the test compound group by the parametric Dunnett's multiple comparison test. […]

[4] = system: animal models of learning impairment; details: active avoidance test, radial-arm maze test, water maze test; cited from earlier work
Std-ddY male mice = experiment: Acute toxicity (Experiment 4); assay type: in vivo; details: oral 2000 mg/kg, observed for 7 days
Protocol: Experiment 4: Acute Toxicity
The experiment on the test compound C was carried out using Std-ddY male mice weighing 25-30 g (10 mice per each group).

| Molecule | MED (minimum effective dose), significant ameliorating effect on scopolamine-induced spatial memory disorder in the rate of alternation behavior [1] [mg/kg] | MED (minimum effective dose), significant ameliorating effect on MK-801-induced object location memory impairment [2] [mg/kg] | MED (minimum effective dose), significant difference in the discrimination index, scopolamine-induced object memory impairment [3] [mg/kg] | ameliorating effects in animal models of learning impairment [4] | further results |
| --- | --- | --- | --- | --- | --- |
| COc1ccc(N(C)C(=O)Cn2c(=O)n(C)c3cnc(-c4ccccc4)nc32)cc1 [Test Compound A, N-(4-methoxyphenyl)-7,8-dihydro-7-methyl-N-methyl-8-oxo-2-phenyl-9H-purin-9-acetamide] | 3 |  |  |  |  |
| CCN(Cc1ccccc1)C(=O)Cn1c(=O)n(C)c2cnc(-c3ccccc3)nc21 [Test Compound E, N-benzyl-N-ethyl-7,8-dihydro-7-methyl-8-oxo-2-phenyl-9H-purin-9-acetamide] | 1 | 0.01 | 0.1 |  | effective dose relative to the dose of FGIN-1-27 [2]: less than 1/100 |
| pregnenolone sulfate |  |  |  | weak ameliorating effects |  |
| CCN(Cc1ccccc1)C(=O)Cn1c(=O)n(C)c2nc(-c3ccccc3)ncc21 [Test Compound B, N-benzyl-N-ethyl-8,9-dihydro-9-methyl-8-oxo-2-phenyl-7H-purin-7-acetamide] | 3 |  |  |  |  |
| CCCCCCN(CCCCCC)C(=O)Cc1c(-c2ccc(F)cc2)[nH]c2ccccc12 [FGIN-1-27, N,N-di-n-hexyl-2-(4-fluorophenyl)indol-3-acetamide, reference compound] | 10 | 10 | >30 | weak ameliorating effects | ameliorating effect on scopolamine-induced object memory impairment at a stated dose ([3]; dose of 30 mg/kg): no significant ameliorating effect |
| CCN(Cc1ccccc1)C(=O)Cn1c(=O)n(CC)c2cnc(-c3ccccc3)nc21 [Test Compound D, N-benzyl-7-ethyl-N-ethyl-7,8-dihydro-8-oxo-2-phenyl-9H-purin-9-acetamide] | 3 |  |  |  |  |
| CC(=O)[C@H]1CC[C@H]2[C@@H]3CC[C@H]4C[C@H](O)CC[C@]4(C)[C@H]3CC[C@]12C [allopregnanolone] |  |  |  | weak ameliorating effects |  |
| CCN(C(=O)Cn1c(=O)n(C)c2nc(-c3ccccc3)ncc21)c1ccccc1 [Test Compound C, N-ethyl-8,9-dihydro-9-methyl-8-oxo-2-phenyl-N-phenyl-7H-purin-7-acetamide] | 0.01 | 0.1 | 0.01 |  | effective dose relative to the dose of FGIN-1-27 [2]: less than 1/100; lethality (Std-ddY male mice): no mouse treated with the test compound C died |
